Literature values as cited in patent US20230310615A1, “OPHTHALMIC COMPOSITIONS” (Alcon Inc., priority 2022, published 2023).

Conditions: dissociation constant of the dibasic compound

pKa1: 6.8
pKa2: 9.5
SMILES: OCC(CO)(CO)NCCCNC(CO)(CO)CO [bis-TRIS-propane, 1,3-bis(tris[hydroxymethyl]methylamino)propane]
